# No end group written: not given here.
# Key:
# E. coli = test: Bacterial growth inhibition by OD600 absorbance, E. coli; format: cell-based, E. coli (DH5-alpha); settings: peptide 10 μM, 24 hours at 37° C., OD 600 nm
# Outline: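 Percent inhibition was calculated from initial and 24 h OD600 readings against DMSO (0.1%) and antibiotic controls. Cultures received 10 μM peptide and were incubated at 30° C. (X. citri) or 37° C. (E. coli).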
# X. citri = test: Bacterial growth inhibition by OD600 absorbance, X. citri; format: cell-based, X. citri subsp. citri (ATCC 49118); settings: peptide 10 μM, 24 hours at 30° C., OD 600 nm
# A. tumefaciens = settings: 24 h, 10 μM
# E. amylovora = settings: 24 h, 10 μM
# L. crescens = settings: 10 μM
Sequence,"growth inhibition, E. coli (E. coli) [%]","growth inhibition, X. citri (X. citri) [%]","growth inhibition, A. tumefaciens (A. tumefaciens) [%]","growth inhibition, E. amylovora (E. amylovora) [%]","growth inhibition, L. crescens (L. crescens) [%]"
FFRNLWKGAKAAFRAGHAAWRA [compound 41],<90,100.00,100.00,100.00,<90
LRFLKKILKHLF [compound 120],100.00,100.00,100.00,100.00,<90
FRIRVRVKWKLFKKI [compound 81],100.00,<90,100.00,100.00,<90
WKLKWKLKWKLK [compound 104],<90,<90,100.00,99.91,<90
LNWGALLKHLLK [compound 139],<90,<90,100.00,100.00,<90
WIKIWKKIIKKWKK [compound 91],<90,<90,98.97,100.00,<90
GIKKFLKSAKKFVKAFK [compound 86],<90,<90,98.88,100.00,<90
KKFLHSAKKWLKAFVKLFKNW [compound 33],100.00,100.00,100.00,<90,96.12
WWKAAAKAAAKWW [compound 117],<90,100.00,99.97,99.79,<90
GMWKKILGKLIR [compound 134],<90,<90,100.00,100.00,<90
GWWRRTVDKVRNAGRKVAGFASKACGALGH [compound 13],100.00,100.00,100.00,100.00,100.00
RKYVRFLHRWVKYFRAYL [compound 47],99.75,<90,<90,<90,<90
FKRLEKLFKKIWNWK [compound 79],<90,100.00,100.00,100.00,<90
LVQRGRFGRFLKKVRRFIPKVIIAAQIGSRFG [compound 6],99.36,100.00,100.00,98.64,<90
KLLKKAGKLLKKAGKLLKKAG [compound 71],<90,100.00,100.00,100.00,<90
RFRRLFRIRVRVLKKI [compound 72],<90,100.00,100.00,100.00,<90
GANALKKYFTILKKFFKLAW [compound 61],100.00,<90,<90,<90,<90
GLLKKIAKKAKKALKKLGY [compound 74],<90,100.00,100.00,100.00,<90
GIMSSLMKKLKKIIAK [compound 99],<90,<90,98.76,100.00,<90

Sequence,"growth inhibition, E. coli (E. coli) [%]","growth inhibition, X. citri (X. citri) [%]","growth inhibition, A. tumefaciens (A. tumefaciens) [%]","growth inhibition, E. amylovora (E. amylovora) [%]","growth inhibition, L. crescens (L. crescens) [%]"
WLNALLHHGYKRKFH [compound 93],<90,<90,<90,<90,<90
GLLSNVAGLLKQFAKGGVNAVLNPK [compound 45],<90,100.00,<90,99.64,<90
AIWKKIIKKIIKSAKKIG [compound 78],<90,100.00,100.00,100.00,<90
GIGKLFLHAAKKFAKAFVAEKMNS [compound 36],<90,100.00,100.00,100.00,<90
GFGTILKALAKIAGKVVKKLATKPGATYMLKENLK [compound 7],100.00,100.00,100.00,100.00,<90
ALWKTLLKHVGKAAGKAALNAVTDMVNQ [compound 25],100.00,100.00,100.00,100.00,<90
GWKDWAKKAGGWLKKKGPGMAKAALKAAMQ [compound 2],<90,100.00,100.00,100.00,<90
KWLKKWLKKWLK [compound 103],98.34,<90,100.00,100.00,<90
GLWSKIKTAGKSVAKAAAKAAVKAVTNAV [compound 28],100.00,100.00,100.00,100.00,<90
KFFKRLLKSVRRAVKKFRKKPRLIGLSTLL [compound 8],100.00,100.00,99.88,100.00,<90
GKLTKDKLKRGAKKALNVASKVAPIVAAGASIAR [compound 10],<90,100.00,98.37,100.00,<90
KWKSFIKKLTKKFLHSAKKF [compound 49],<90,100.00,100.00,100.00,<90
KNWKGIAGMAKKLLGKNWKLM [compound 59],<90,100.00,99.61,100.00,<90
INWKKIASIGKEVLKAL [compound 94],<90,<90,100.00,100.00,<90
SWKSMAKKLKEYMEKLKQRA [compound 50],<90,<90,99.59,100.00,<90
KWAVRIIRKFIKGFIS [compound 88],96.20,<90,100.00,100.00,<90
KILKRLAAKIKKIL [compound 113],<90,100.00,<90,<90,<90
GILSKLGKALKKAAKHAAKA [compound 82],<90,<90,<90,100.00,<90
WFGKLYRGITSVVKKVKGLLSG [compound 55],100.00,100.00,100.00,100.00,<90
